In patent EP4737450A1 (Longwood Pharmaceuticals (Hangzhou) Co., Ltd, priority 2023, dated 2025):
pIC50: −log10 of the molar value.

Assays:
plasma kallikrein (PKa) [1] = molecular target: T1, plasma kallikrein (PKa) (Homo sapiens, UniProt P03952); test: PKa inhibition in kaolin-activated human platelet-poor plasma (PPP); format: biochemical; settings: Pro-Phe-Arg-AMC substrate, fluorescence signal
T1 construct: purchased R & D 2497-SE
Procedure: Test Example 2. Evaluation of the compounds of the present invention in terms of PKa Inhibition in Kaolin-Activated Human PPP: Platelet-poor plasma (PPP) obtained from human whole blood, anticoagulated with Na - Citrate, was incubated with various concentrations of the test compounds and 25, 75, 250, or 750 µg/mL kaolin in assay buffer for 20 minutes at 37°C, so that a concentration response of the test compounds was obtained with respect to various kaolin concentrations. The positive drug was diluted in accordance with the reference concentration and diluted 3-fold with the diluent as the first point.
50 nL of compounds were then transferred to a 384 assay plate containing 2 replicates per well. The 384 assay plate was centrifuged at 1000 rpm/min. 2.5 µL of human plasma working solution was added to each assay well. The 384 assay plate was centrifuged at 1000 RPM. 2.5 µL of kaolin working solution was added to each assay well. The 384 assay plate was centrifuged at 1000 RPM and incubated at 25°C for 20 minutes. 5 µL of Pro-Phe-Arg-AMC working solution was added to each assay well. The 384 assay plate was centrifuged at 1000 RPM and incubated at 25°C for 60 minutes. BMG reads the fluorescence signal.
The percent inhibition of the compound was calculated according to the following formula: [formula]

plasma kallikrein (PKa) [2] = molecular target: T1, plasma kallikrein (PKa); test: Inhibitory activity against plasma kallikrein in vitro (fluorescence intensity enzyme assay, Pro-Phe-Arg-AMC substrate); format: biochemical; settings: Pro-Phe-Arg-AMC substrate
In short: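 Fluorescence intensity enzyme assay with 10 nM enzyme and 60 µM Pro-Phe-Arg-AMC (final concentrations). Compounds in DMSO, tested in duplicate over a dose series. IC50 from nonlinear regression curve fitting.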

FXIa = FXIa (Homo sapiens, UniProt P03951); test: Inhibitory activity against FXIa in vitro (biochemical assay)
FXIa, sequence (P03951 388-625 limits assumed): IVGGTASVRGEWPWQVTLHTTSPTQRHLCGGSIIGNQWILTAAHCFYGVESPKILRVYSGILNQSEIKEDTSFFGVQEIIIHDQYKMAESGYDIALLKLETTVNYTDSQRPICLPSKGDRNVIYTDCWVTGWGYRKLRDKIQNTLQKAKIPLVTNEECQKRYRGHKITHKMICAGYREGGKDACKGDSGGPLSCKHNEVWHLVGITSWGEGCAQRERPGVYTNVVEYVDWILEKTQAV
FXIa, sequence (P03951 19-387 partner limits assumed): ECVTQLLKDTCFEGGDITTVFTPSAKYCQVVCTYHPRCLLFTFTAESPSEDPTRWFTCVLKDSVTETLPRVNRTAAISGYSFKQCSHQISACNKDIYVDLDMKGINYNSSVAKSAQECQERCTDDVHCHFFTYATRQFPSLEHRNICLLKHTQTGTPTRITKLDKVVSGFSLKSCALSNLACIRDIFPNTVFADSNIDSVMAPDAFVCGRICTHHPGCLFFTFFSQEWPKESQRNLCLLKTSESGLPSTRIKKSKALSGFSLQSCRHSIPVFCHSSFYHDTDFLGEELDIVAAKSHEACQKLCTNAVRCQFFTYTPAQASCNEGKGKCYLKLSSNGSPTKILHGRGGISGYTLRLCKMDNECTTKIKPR
In short: (§1)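 Compounds were dispensed acoustically from DMSO and tested in duplicate. IC50 values came from nonlinear regression curve fitting.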

KLK1 = KLK1 (Homo sapiens, UniProt P06870); test: Inhibitory activity against KLK1 in vitro (biochemical assay)
KLK1, sequence (P06870 25-262, species assumed): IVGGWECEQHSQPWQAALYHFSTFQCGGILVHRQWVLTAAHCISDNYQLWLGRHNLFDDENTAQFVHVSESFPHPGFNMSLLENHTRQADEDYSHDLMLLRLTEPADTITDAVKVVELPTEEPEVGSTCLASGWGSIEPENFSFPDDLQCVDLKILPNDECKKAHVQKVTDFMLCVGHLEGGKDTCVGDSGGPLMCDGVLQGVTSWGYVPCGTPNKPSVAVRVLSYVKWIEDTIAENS
In short: as §1

[3] = plasma kallikrein enzyme assay, read-out: PKa IC50

T1 sequence (P03952 391-638 limits assumed): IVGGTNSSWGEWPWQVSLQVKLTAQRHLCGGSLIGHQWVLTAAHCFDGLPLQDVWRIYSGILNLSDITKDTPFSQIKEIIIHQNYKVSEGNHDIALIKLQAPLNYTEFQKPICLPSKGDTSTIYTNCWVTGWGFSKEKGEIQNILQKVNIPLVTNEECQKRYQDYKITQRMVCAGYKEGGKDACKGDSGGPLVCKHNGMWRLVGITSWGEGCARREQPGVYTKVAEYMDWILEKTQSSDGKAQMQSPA
T1 sequence (P03952 20-390 partner limits assumed): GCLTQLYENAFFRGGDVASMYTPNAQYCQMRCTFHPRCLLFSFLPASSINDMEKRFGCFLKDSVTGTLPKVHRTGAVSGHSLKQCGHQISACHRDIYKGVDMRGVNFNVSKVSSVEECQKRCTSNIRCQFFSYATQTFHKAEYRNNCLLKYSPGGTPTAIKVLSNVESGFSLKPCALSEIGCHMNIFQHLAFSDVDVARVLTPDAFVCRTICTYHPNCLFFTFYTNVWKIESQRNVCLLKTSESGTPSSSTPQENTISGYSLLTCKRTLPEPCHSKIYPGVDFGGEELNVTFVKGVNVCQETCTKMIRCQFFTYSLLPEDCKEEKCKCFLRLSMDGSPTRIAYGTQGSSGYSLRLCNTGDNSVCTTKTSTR

Q: How did the pIC50 (plasma kallikrein (PKa) [1]) turn out when `COCc1nn(Cc2ccc(Cn3cccn3)cc2)cc1C(=O)NCc1c(C)cc(N)nc1C` [Compound 14, 1-(4-((1H-pyrazol-1-yl)methyl)benzyl)-N-((6-amino-2,4-dimethylpyridin-3-yl)methyl)-3-(methoxymethyl)-1H-pyrazol-4-carboxamide] was run?
A: 8.12

Q: What about the pIC50 (plasma kallikrein (PKa) [2]; [3]) of the same compound?
A: 9.67

Q: And the IC50 (FXIa; values in nM)?
A: > 500 nM

Q: What about the IC50 (KLK1; values in nM) of the same compound?
A: > 500 nM

Q: With `COCc1nn(Cc2cn3cc(C4CC4)ccc3n2)cc1C(=O)NCc1ccc(C(=N)N)cc1` [Compound 39] as the compound, how does the pIC50 (plasma kallikrein (PKa) [1]) read?
A: 7.13

Q: What about the pIC50 (plasma kallikrein (PKa) [2]; [3]) of the same compound?
A: > 10.30

Q: And the IC50 (FXIa; values given in µM)?
A: > 10000 nM

Q: And the IC50 (KLK1; values given in µM)?
A: > 10000 nM

Q: What does the source list for `N=C(N)c1ccc(CNC(=O)c2cnn(Cc3ccc(CC4CC4)cc3)c2C(F)(F)F)cc1` [Compound 109]?
A: pIC50 (plasma kallikrein (PKa) [1]): 8.08; pIC50 (plasma kallikrein (PKa) [2]; [3]): 9.46; IC50 (FXIa; values given in µM): > 10000 nM; IC50 (KLK1; values given in µM): > 10000 nM

Q: With `Nc1nccc2cc(CNC(=O)c3ncn(Cc4ccc(Cn5ccccc5=O)cc4)n3)ccc12` [Compound 76] as the compound, how does the pIC50 (plasma kallikrein (PKa) [1]) read?
A: 7.90

Q: What about the pIC50 (plasma kallikrein (PKa) [2]; [3]) of the same compound?
A: 9.02

Q: What about the IC50 (FXIa; values given in µM) of the same compound?
A: > 10000 nM

Q: What about the IC50 (KLK1; values given in µM) of the same compound?
A: > 10000 nM

Q: Which results are given for `Cc1cc(N)nc(C)c1CNC(=O)c1ncn(Cc2ccc(Cn3ccccc3=O)cc2)n1` [Compound 11, N-((6-amino-2,4-dimethylpyridin-3-yl)methyl)-1-(4-((2-oxopyridin-1(2H)-yl)methyl)benzyl)-1H-1,2,4-triazole-3-carboxamide]?
A: pIC50 (plasma kallikrein (PKa) [1]): 8.22; pIC50 (plasma kallikrein (PKa) [2]; [3]): 10.52; IC50 (FXIa; values in nM): > 500 nM; IC50 (KLK1; values in nM): > 500 nM

Q: What does the source list for `N=C(N)c1ccc(CNC(=O)c2cnn(Cc3ccc(Oc4ccccc4)cc3)c2)cc1` [Compound 128]?
A: pIC50 (plasma kallikrein (PKa) [1]): 7.88; pIC50 (plasma kallikrein (PKa) [2]; PKa IC50, plasma kallikrein enzyme assay): 9.25; IC50 (FXIa; values given in µM): > 10000 nM; IC50 (KLK1; values given in µM): > 10000 nM

Q: `Nc1noc2ccc(CNC(=O)c3cnn(Cc4ccc(Cn5ccccc5=O)cc4)c3)cc12` [Compound 214] was tested. Which pIC50 (plasma kallikrein (PKa) [1]) did it give?
A: 7.83

Q: What about the pIC50 (plasma kallikrein (PKa) [2]; [3]) of the same compound?
A: 9.80

Q: And the IC50 (FXIa; values given in µM)?
A: > 10000 nM

Q: What about the IC50 (KLK1; values given in µM) of the same compound?
A: > 10000 nM

Q: With `Cc1cc(N)nc(C)c1CNC(=O)c1nn(Cc2ccc(Cn3ccccc3=O)cc2)cc1C1CCCO1` (centres unmarked) [Compound 4, N-((6-amino-2,4-dimethylpyridin-3-yl)methyl)-1-(4-((2-oxopyridin-1(2H)-yl)methyl)benzyl)-4-(tetrahydrofuran-2-yl)-1H-pyrazole-3-carboxamide] as the compound, how does the pIC50 (plasma kallikrein (PKa) [1]) read?
A: 7.88

Q: And the pIC50 (plasma kallikrein (PKa) [2]; [3])?
A: 9.81

Q: And the IC50 (FXIa; values given in µM)?
A: > 10000 nM

Q: And the IC50 (KLK1; values given in µM)?
A: > 10000 nM

Q: With `Cc1cc(N)nc(C)c1CNC(=O)c1coc(Cc2cn3cc(C4CC4)ccc3n2)n1` [Compound 19] as the compound, how does the pIC50 (plasma kallikrein (PKa) [1]) read?
A: 7.63

Q: What about the pIC50 (plasma kallikrein (PKa) [2]; [3]) of the same compound?
A: 9.20

Q: And the IC50 (FXIa; values given in µM)?
A: > 10000 nM

Q: And the IC50 (KLK1; values given in µM)?
A: > 10000 nM

Q: What does the source list for `Cc1cc(N)nc(C)c1CNC(=O)c1cn(Cc2ccc(Cn3ccccc3=O)cc2)nn1` [Compound 1, N-((6-amino-2,4-dimethylpyridin-3-yl)methyl)-1-(4-((2-oxopyridin-1(2H)-yl)methyl)benzyl)-1H-1,2,3-triazole-4-carboxamide]?
A: pIC50 (plasma kallikrein (PKa) [1]): 8.12; pIC50 (plasma kallikrein (PKa) [2]; [3]): 9.75; IC50 (FXIa; values given in µM): > 10000 nM; IC50 (KLK1; values given in µM): > 10000 nM

Q: With `COCc1nn(Cc2ccc(Cn3ccccc3=O)cc2)cc1C(=O)NCc1c(C)cc(N)nc1C` [Compound 2, N-((6-amino-2,4-dimethylpyridin-3-yl)methyl)-3-(methoxymethyl)-1-(4-((2-oxopyridin-1(2H)-yl)methyl)benzyl)-1H-pyrazole-4-carboxamide] as the compound, how does the pIC50 (plasma kallikrein (PKa) [1]) read?
A: 8.17

Q: What about the pIC50 (plasma kallikrein (PKa) [2]; [3]) of the same compound?
A: 9.29

Q: And the IC50 (FXIa; values given in µM)?
A: > 10000 nM

Q: And the IC50 (KLK1; values given in µM)?
A: > 10000 nM

Q: What does the source list for `Cc1cc(N)nc(C)c1CNC(=O)c1ncn(Cc2ccc(Cn3cc(F)ccc3=O)cc2)n1` [Compound 23]?
A: pIC50 (plasma kallikrein (PKa) [1]): 8.10; pIC50 (plasma kallikrein (PKa) [2]; [3]): > 10.30; IC50 (FXIa; values given in µM): > 10000 nM; IC50 (KLK1; values given in µM): > 10000 nM

Q: `N#Cc1cccc([C@@H](NCC2CC2)c2ccc(F)c(NC(=O)c3cc(C(F)(F)F)nn3-c3cccc(CN)c3)c2)c1` [Berotralstat, reference compound] was tested. Which pIC50 (plasma kallikrein (PKa) [1]) did it give?
A: 7.25

Q: What about the pIC50 (plasma kallikrein (PKa) [2]; [3]) of the same compound?
A: 8.66

Q: What about the IC50 (FXIa; values given in µM) of the same compound?
A: > 10000 nM

Q: What about the IC50 (KLK1; values given in µM) of the same compound?
A: > 10000 nM

Q: How did the pIC50 (plasma kallikrein (PKa) [1]) turn out when `N=C(N)c1ccc(CNC(=O)c2cnn(Cc3ccc(CC4CC4)cc3)c2)cn1` [Compound 242] was run?
A: 7.39

Q: And the pIC50 (plasma kallikrein (PKa) [2]; [3])?
A: 8.64

Q: What about the IC50 (FXIa; values given in µM) of the same compound?
A: > 10000 nM

Q: What about the IC50 (KLK1; values given in µM) of the same compound?
A: > 10000 nM

Q: What does the source list for `COCc1nn(Cc2ccc(Cn3ccccc3=O)cc2)cc1C(=O)NCc1ccc(C(=N)N)cc1F` [Compound 241]?
A: pIC50 (plasma kallikrein (PKa) [1]): 7.71; pIC50 (plasma kallikrein (PKa) [2]; [3]): 10.10; IC50 (FXIa; values given in µM): > 10000 nM; IC50 (KLK1; values given in µM): > 10000 nM

Q: What does the source list for `Cc1cc(N)nc(C)c1CNC(=O)c1cnc(Cc2cn3cc(C4CC4)ccc3n2)o1` [Compound 18]?
A: pIC50 (plasma kallikrein (PKa) [1]): 8.10; pIC50 (plasma kallikrein (PKa) [2]; [3]): 9.39; IC50 (FXIa; values given in µM): > 10000 nM; IC50 (KLK1; values given in µM): > 10000 nM

Q: `N=C(N)c1ccc(CNC(=O)c2coc(Cc3cn4cc(C5CC5)ccc4n3)n2)cc1` [Compound 37] was tested. Which pIC50 (plasma kallikrein (PKa) [1]) did it give?
A: 8.17

Q: And the pIC50 (plasma kallikrein (PKa) [2]; [3])?
A: 9.80

Q: What about the IC50 (FXIa; values given in µM) of the same compound?
A: > 10000 nM

Q: And the IC50 (KLK1; values given in µM)?
A: > 10000 nM
